Reference: US20110281802A1, “COMPOSITION FOR TREATMENT AND PREVENTION OF HAIR LOSS AND PREMATURE GRAYING OF HAIR” (Immudiagnostik AG, priority 2007, published 2011)

Legend:
[1] = test system: human anagen VI hair follicles; test: Hair shaft elongation of organ-cultured hair follicles, assay #3 (culture HF 446); type: cell-based
Procedure: Human anagen VI hair follicles were isolated from scalp skin obtained from three different individuals undergoing routine face-lift surgery. All experiments were performed according to Helsinki guidelines.
Hair follicles were isolated as described (Philpott MP et al, Human hair growth in vitro; J Cell Science 1990, 97(Pt 3):463-71). Isolated HFs were maintained in supplemented, serum-free Williams E medium (Biochrom, Cambridge, UK) supplemented with 2 mMol/L L-glutamine (Invitrogen, Paisley, UK), 10 ng/mL hydrocortisone (Sigma-Aldrich, Taufkirchen, Germany), 10 μg/mL insulin (Sigma-Aldrich), and 1% antibiotic/antimycotic mixture (Gibco, Karlsruhe, Germany). Hair follicles were placed in a 24-well plate with 500 μL medium (day 0) and incubated in a CO2-incubator (5% CO2, 37° C.) over night without any treatment. The next day (day 1) medium was exchanged and test substance was added to each well (5 μL of stock solution was added to 495 μL culture medium). The medium or medium with test substance was changed every 48 hours.
(§1) Assay #3 Culture HF 446: Eight hair follicle cultures (3 follicles/well) were treated with various concentration of test substance as described for 2 days, followed by snap freezing and sectioning of two wells. Six wells were treated up to 9 days, then snap frozen and sectioned. The distribution of test substances and concentrations were as indicted in FIG. 3. The parameter measured after two days was proliferation/apoptosis, and the parameters measured after 9 days were elongation, proportion of cells in proliferation/apoptosis, and hair cycle stage
Hair shaft length measurements were performed every second day on individual hair follicles using a binocular microscope with an eyepiece measuring reticule. The length of the follicle was defined as the distance between the base of the bulb and the cut end of the hair fibre (Philpott MP et al, Human hair growth in vitro; J Cell Science 1990, 97(Pt 3):463-71).
All data were analysed by two-tailed unpaired t-test (SPSS analysis software SPSS Inc., Chicago, USA). For determination of elongation, two outliers at top and bottom end of value range were eliminated; with the measurement of melanogenesis one outlier at both, top and bottom range, was eliminated. Results are given as mean value and standard error of measurement (SEM).

[2] = test system: human anagen hair follicles; test: Ki67/TUNEL staining, percentage of proliferating cells, assay #3; type: cell-based; conditions: after 9 days of culture, Anagen only
Procedure: as §1
After nine days, Ki67/TUNEL staining was performed and photos taken.
Proliferating and resting cells as well as cells undergoing apoptosis were counted separately proximal Auber's line. Results are expressed as percentages. For Ki-67/TUNEL staining, fixed sections were incubated for 60 minutes in a solution comprising 30% TdT-enzyme (Chemicon International, Inc., Temecula, Calif., USA; CatNo S1707). 2 mL stop buffer (Chemicon International, Inc.; CatNo S7110), diluted in 68 mL distilled water, was added for 10 minutes to stop the reaction. This was followed by a pre-incubation for 20 minutes with 10% goat serum (Dako Cytomation, CatNo 50114121) and incubation with mouse-anti human Ki-67 antigen (Chemicon International, Inc., CatNo S7110) 1:20 in PBS with 2% goat serum. The fixed section was then washed in PBS, treated with anti-digoxigenin antibody (Chemicon International, Inc., CatNo S7110) (59DI Antibody solution and 5601 Stop solution, 30 minutes) and goat anti-mouse-IgG-rhodamine red (Jackson Immuno Research, Suffolk, UK; CatNo 115-295-062), 1:200 in PBS with 2% goat serum. After washes with PBS, counterstaining with DAPI™ ([…]) (Roche, Basel, Switzerland; CatNo 236276) and further washes with PBS and mounting using Fluoromount (Southern Biotech, Birmingham, Ala., USA; CatNo 0100-01).
After nine days, Ki67/TUNEL staining was performed and photos were taken. In anagen hair follicles, proliferating cells and cells undergoing apoptosis were counted separately proximal Auber's line. Results are expressed as percentages. […] The results are summarized in Table 6 and FIG. 9 showing the mean percentage of Ki6 7 positive cells with SEM

Prolactin = test: Immunohistochemical staining of treated hair follicles for prolactin (assay #6); type: cell-based, human; conditions: 10 pg/mL and 100 pg/mL, few hair follicles, very preliminary
Procedure: The staining was performed according to the following protocol:
A. Prolactin: Pre-treatment with 0.5% Triton X (Fluka, Sigma Aldrich, Taufkirchen, Germany; CatNo 93420) in TBS for 10 minutes at room temperature, three washings in TBS for five minutes each, treatment with 0.6% H2O2 in methanol three times for 15 minutes, washes in TBS. Pre-incubation with 10% rabbit serum (Dako Cytomation, CatNo X0902) in TBS with 3% BSA for 20 minutes, incubation with primary antibody (goat anti-human prolactin, Santa Cruz Biotechnology, Inc., Santa Cruz, Calif., USA; CatNo SC-7805), dilution 1:100 in TBS+2% rabbit serum (Dako Cytomation, CatNo X0902) overnight at 4° C. Thereafter washes in TBS. Incubation with secondary antibody (rabbit anti-goat-biotinylated, DAKO Cytomation, CatNo E0466) diluted to 1:200 with 2% rabbit serum in TBS for 45 minutes at room temperature. Treatment with Avidin Biotin Complex-alkaline phosphatase (Vector Laboratories, Burlingame, Calif., USA; CatNo AK-5000) for 30 minutes, then washing in TBS. Thereafter treatment with Fast Red Tablets (Sigma-Aldrich, CatNo F4648-50SET) for 6 minutes. Counterstaining with Mayer's Haemalaun (Chroma Muenster, CatNo 2E038) and mounting with Aquamount (DAKO Cytomation, CatNo S3025).
In both assays human pituitary gland was set as positive control and negative control were hair follicles treated without the primary antibody.

Thymosin beta-4 [TB4]
Mean elongation in % compared to day 0 ([1]; 100 ng/mL, Day 0): 0%
Mean elongation in % compared to day 0 ([1]; 100 ng/mL, Day 1): 5.91%
Mean elongation in % compared to day 0 ([1]; 100 ng/mL, Day 3): 42.55%
Mean elongation in % compared to day 0 ([1]; 100 ng/mL, Day 5): 59.58%
Mean elongation in % compared to day 0 ([1]; 100 ng/mL, Day 7): 73.62%
Mean elongation in % compared to day 0 ([1]; 100 ng/mL, Day 9): 83.13%
Mean elongation in % compared to day 0 ([1]; 1000 ng/mL, Day 0): 0%
Mean elongation in % compared to day 0 ([1]; 1000 ng/mL, Day 1): 8.28%
Mean elongation in % compared to day 0 ([1]; 1000 ng/mL, Day 3): 39.17%
Mean elongation in % compared to day 0 ([1]; 1000 ng/mL, Day 5): 53.52%
Mean elongation in % compared to day 0 ([1]; 1000 ng/mL, Day 7): 65.51%
Mean elongation in % compared to day 0 ([1]; 1000 ng/mL, Day 9): 70.08%
Rate of hair growth compared with control (in words) ([1]; 1000 ng/mL, p<0.05): significantly lowered rate of hair growth
Mean percentage of Ki67-positive cells ([2]; 100 ng/mL): 39.30 percentage
Mean percentage of Ki67-positive cells ([2]; 1000 ng/mL): 33.14 percentage

thymulin
Mean elongation in % compared to day 0 ([1]; 10 pg/mL, Day 0): 0%
Mean elongation in % compared to day 0 ([1]; 10 pg/mL, Day 1): 7.30%
Mean elongation in % compared to day 0 ([1]; 10 pg/mL, Day 3): 45.35%
Mean elongation in % compared to day 0 ([1]; 10 pg/mL, Day 5): 58.41%
Mean elongation in % compared to day 0 ([1]; 10 pg/mL, Day 7): 67.70%
Mean elongation in % compared to day 0 ([1]; 10 pg/mL, Day 9): 78.70%
Mean elongation in % compared to day 0 ([1]; 100 pg/mL, Day 0): 0%
Mean elongation in % compared to day 0 ([1]; 100 pg/mL, Day 1): 5.86%
Mean elongation in % compared to day 0 ([1]; 100 pg/mL, Day 3): 40.11%
Mean elongation in % compared to day 0 ([1]; 100 pg/mL, Day 5): 62.88%
Mean elongation in % compared to day 0 ([1]; 100 pg/mL, Day 7): 80.67%
Mean elongation in % compared to day 0 ([1]; 100 pg/mL, Day 9): 94.36%
Mean percentage of Ki67-positive cells ([2]; 10 pg/mL): 31.58 percentage
Mean percentage of Ki67-positive cells ([2]; 100 pg/mL): 35.75 percentage
Immunoreactivity for Prolactin in treated hair follicles (in words) (Prolactin): some additional staining in the IRS
